The results in this text go back to publication PMC8214221, “Sequence determinants in the cathelicidin LL-37 that promote inflammation via presentation of RNA to scavenger receptors” (The Journal of Biological Chemistry, 2021).

Residues, ends and D or L forms follow the SMILES beside them.

The subject of the data set is normal human epidermal keratinocytes (NHEKs). The experiment in a line: LDH release cytotoxicity assay in keratinocytes. The format is cell-based. Particulars: minimal concentration giving 50% LDH release by NHEKs. From the text:
Since LL-34 was the minimal truncation mutant of LL-37 that retained both antimicrobial and immune modulatory activity, we prepared a series of synthetic peptides with sequential substitutions of alanine at each amino acid position of the LL-34 parent peptide (Table 1). We compared the minimum inhibitory concentration (MIC) for the LL-34 parent peptide and the alanine mutants (LL-34 peptides—L1A and R34A) against methicillin-resistant Staphylococcus aureus strain USA300 (Fig. 1A). LL-34 peptides were incubated at concentrations of 0 to 100 μM with bacteria. The minimal concentration at which no growth was observed was noted after 18 h of incubation. […] Because of these changes in the MIC against S. aureus between the mutants, we investigated the effective toxicity profile of the peptides in normal human epidermal keratinocytes (NHEKs) by lactate dehydrogenase (LDH) release assay (Table 1). […] Most other peptides were cytotoxic at a minimal concentration of 10 μM, whereas LL-34—K15A was toxic at a concentration of 2.5 μM.
LDH cytotoxicity assay was performed according to manufacturer's instructions (Thermo Fisher Scientific). Culture supernatants from keratinocytes were used fresh for LDH assay after experimental treatments.
In general terms: Release of lactate dehydrogenase indicates damage to the cell membrane.
As for `CC[C@H](C)[C@H](NC(=O)[C@H](CCCCN)NC(=O)[C@H](CCC(=O)O)NC(=O)[C@H](CCCCN)NC(=O)[C@H](CO)NC(=O)[C@H](CCCCN)NC(=O)[C@H](CCCNC(=N)N)NC(=O)[C@H](Cc1ccccc1)NC(=O)[C@H](Cc1ccccc1)NC(=O)[C@H](C)NC(=O)CNC(=O)[C@H](CC(C)C)NC(=O)[C@@H](N)CC(C)C)C(=O)NCC(=O)N[C@@H](CCCCN)C(=O)N[C@@H](CCC(=O)O)C(=O)N[C@@H](Cc1ccccc1)C(=O)N[C@@H](CCCCN)C(=O)N[C@@H](CCCNC(=N)N)C(=O)N[C@H](C(=O)N[C@H](C(=O)N[C@@H](CCC(N)=O)C(=O)N[C@@H](CCCNC(=N)N)C(=O)N[C@H](C(=O)N[C@@H](CCCCN)C(=O)N[C@@H](CC(=O)O)C(=O)N[C@@H](Cc1ccccc1)C(=O)N[C@@H](CC(C)C)C(=O)N[C@@H](CCCNC(=N)N)C(=O)N[C@@H](CC(N)=O)C(=O)N[C@@H](CC(C)C)C(=O)N[C@H](C(=O)N1CCC[C@H]1C(=O)N[C@@H](CCCNC(=N)N)C(=O)O)C(C)C)[C@@H](C)CC)C(C)C)[C@@H](C)CC` [LL-34—D4A] (H-LLGAFFRKSKEKIGKEFKRIVQRIKDFLRNLVPR-OH; N-terminus and C-terminus assumed), the “Minimal cytotoxic concentration in NHEK (LD50)” value (“Minimal cytotoxic concentration” for short) worked out at 5 µM.
Turning to `CC[C@H](C)[C@H](NC(=O)[C@H](CCCCN)NC(=O)[C@H](CCC(=O)O)NC(=O)[C@H](CCCCN)NC(=O)[C@H](CO)NC(=O)[C@H](CCCCN)NC(=O)[C@H](CCCNC(=N)N)NC(=O)[C@H](Cc1ccccc1)NC(=O)[C@H](Cc1ccccc1)NC(=O)[C@H](CC(=O)O)NC(=O)CNC(=O)[C@H](CC(C)C)NC(=O)[C@@H](N)CC(C)C)C(=O)NCC(=O)N[C@@H](CCCCN)C(=O)N[C@@H](CCC(=O)O)C(=O)N[C@@H](Cc1ccccc1)C(=O)N[C@@H](CCCCN)C(=O)N[C@@H](CCCNC(=N)N)C(=O)N[C@H](C(=O)N[C@H](C(=O)N[C@@H](CCC(N)=O)C(=O)N[C@@H](CCCNC(=N)N)C(=O)N[C@H](C(=O)N[C@@H](CCCCN)C(=O)N[C@@H](C)C(=O)N[C@@H](Cc1ccccc1)C(=O)N[C@@H](CC(C)C)C(=O)N[C@@H](CCCNC(=N)N)C(=O)N[C@@H](CC(N)=O)C(=O)N[C@@H](CC(C)C)C(=O)N[C@H](C(=O)N1CCC[C@H]1C(=O)N[C@@H](CCCNC(=N)N)C(=O)O)C(C)C)[C@@H](C)CC)C(C)C)[C@@H](C)CC` [LL-34—D26A] (H-LLGDFFRKSKEKIGKEFKRIVQRIKAFLRNLVPR-OH; N-terminus and C-terminus assumed), the “Minimal cytotoxic concentration” value amounted to 10 µM.
The value for `CC[C@H](C)[C@H](NC(=O)[C@H](CCCCN)NC(=O)[C@H](C)NC(=O)[C@H](CCCCN)NC(=O)[C@H](CO)NC(=O)[C@H](CCCCN)NC(=O)[C@H](CCCNC(=N)N)NC(=O)[C@H](Cc1ccccc1)NC(=O)[C@H](Cc1ccccc1)NC(=O)[C@H](CC(=O)O)NC(=O)CNC(=O)[C@H](CC(C)C)NC(=O)[C@@H](N)CC(C)C)C(=O)NCC(=O)N[C@@H](CCCCN)C(=O)N[C@@H](CCC(=O)O)C(=O)N[C@@H](Cc1ccccc1)C(=O)N[C@@H](CCCCN)C(=O)N[C@@H](CCCNC(=N)N)C(=O)N[C@H](C(=O)N[C@H](C(=O)N[C@@H](CCC(N)=O)C(=O)N[C@@H](CCCNC(=N)N)C(=O)N[C@H](C(=O)N[C@@H](CCCCN)C(=O)N[C@@H](CC(=O)O)C(=O)N[C@@H](Cc1ccccc1)C(=O)N[C@@H](CC(C)C)C(=O)N[C@@H](CCCNC(=N)N)C(=O)N[C@@H](CC(N)=O)C(=O)N[C@@H](CC(C)C)C(=O)N[C@H](C(=O)N1CCC[C@H]1C(=O)N[C@@H](CCCNC(=N)N)C(=O)O)C(C)C)[C@@H](C)CC)C(C)C)[C@@H](C)CC` [LL-34—E11A] (H-LLGDFFRKSKAKIGKEFKRIVQRIKDFLRNLVPR-OH; N-terminus and C-terminus assumed) was 5 µM; that for `CC[C@H](C)[C@H](NC(=O)[C@H](CCCCN)NC(=O)[C@H](CCC(=O)O)NC(=O)[C@H](CCCCN)NC(=O)[C@H](CO)NC(=O)[C@H](CCCCN)NC(=O)[C@H](CCCNC(=N)N)NC(=O)[C@H](Cc1ccccc1)NC(=O)[C@H](Cc1ccccc1)NC(=O)[C@H](CC(=O)O)NC(=O)CNC(=O)[C@H](CC(C)C)NC(=O)[C@@H](N)CC(C)C)C(=O)NCC(=O)N[C@@H](CCCCN)C(=O)N[C@@H](C)C(=O)N[C@@H](Cc1ccccc1)C(=O)N[C@@H](CCCCN)C(=O)N[C@@H](CCCNC(=N)N)C(=O)N[C@H](C(=O)N[C@H](C(=O)N[C@@H](CCC(N)=O)C(=O)N[C@@H](CCCNC(=N)N)C(=O)N[C@H](C(=O)N[C@@H](CCCCN)C(=O)N[C@@H](CC(=O)O)C(=O)N[C@@H](Cc1ccccc1)C(=O)N[C@@H](CC(C)C)C(=O)N[C@@H](CCCNC(=N)N)C(=O)N[C@@H](CC(N)=O)C(=O)N[C@@H](CC(C)C)C(=O)N[C@H](C(=O)N1CCC[C@H]1C(=O)N[C@@H](CCCNC(=N)N)C(=O)O)C(C)C)[C@@H](C)CC)C(C)C)[C@@H](C)CC` [LL-34—E16A] (H-LLGDFFRKSKEKIGKAFKRIVQRIKDFLRNLVPR-OH; N-terminus and C-terminus assumed) was 5 µM.
The value for `CC[C@H](C)[C@H](NC(=O)[C@H](CCCCN)NC(=O)[C@H](CCC(=O)O)NC(=O)[C@H](CCCCN)NC(=O)[C@H](CO)NC(=O)[C@H](CCCCN)NC(=O)[C@H](CCCNC(=N)N)NC(=O)[C@H](Cc1ccccc1)NC(=O)[C@H](Cc1ccccc1)NC(=O)[C@H](CC(=O)O)NC(=O)[C@H](C)NC(=O)[C@H](CC(C)C)NC(=O)[C@@H](N)CC(C)C)C(=O)NCC(=O)N[C@@H](CCCCN)C(=O)N[C@@H](CCC(=O)O)C(=O)N[C@@H](Cc1ccccc1)C(=O)N[C@@H](CCCCN)C(=O)N[C@@H](CCCNC(=N)N)C(=O)N[C@H](C(=O)N[C@H](C(=O)N[C@@H](CCC(N)=O)C(=O)N[C@@H](CCCNC(=N)N)C(=O)N[C@H](C(=O)N[C@@H](CCCCN)C(=O)N[C@@H](CC(=O)O)C(=O)N[C@@H](Cc1ccccc1)C(=O)N[C@@H](CC(C)C)C(=O)N[C@@H](CCCNC(=N)N)C(=O)N[C@@H](CC(N)=O)C(=O)N[C@@H](CC(C)C)C(=O)N[C@H](C(=O)N1CCC[C@H]1C(=O)N[C@@H](CCCNC(=N)N)C(=O)O)C(C)C)[C@@H](C)CC)C(C)C)[C@@H](C)CC` [LL-34—G3A] (H-LLADFFRKSKEKIGKEFKRIVQRIKDFLRNLVPR-OH; N-terminus and C-terminus assumed) was 20 µM; that for `CC[C@H](C)[C@H](NC(=O)[C@H](CCCCN)NC(=O)[C@H](CCC(=O)O)NC(=O)[C@H](CCCCN)NC(=O)[C@H](CO)NC(=O)[C@H](CCCCN)NC(=O)[C@H](CCCNC(=N)N)NC(=O)[C@H](Cc1ccccc1)NC(=O)[C@H](Cc1ccccc1)NC(=O)[C@H](CC(=O)O)NC(=O)CNC(=O)[C@H](CC(C)C)NC(=O)[C@@H](N)CC(C)C)C(=O)N[C@@H](C)C(=O)N[C@@H](CCCCN)C(=O)N[C@@H](CCC(=O)O)C(=O)N[C@@H](Cc1ccccc1)C(=O)N[C@@H](CCCCN)C(=O)N[C@@H](CCCNC(=N)N)C(=O)N[C@H](C(=O)N[C@H](C(=O)N[C@@H](CCC(N)=O)C(=O)N[C@@H](CCCNC(=N)N)C(=O)N[C@H](C(=O)N[C@@H](CCCCN)C(=O)N[C@@H](CC(=O)O)C(=O)N[C@@H](Cc1ccccc1)C(=O)N[C@@H](CC(C)C)C(=O)N[C@@H](CCCNC(=N)N)C(=O)N[C@@H](CC(N)=O)C(=O)N[C@@H](CC(C)C)C(=O)N[C@H](C(=O)N1CCC[C@H]1C(=O)N[C@@H](CCCNC(=N)N)C(=O)O)C(C)C)[C@@H](C)CC)C(C)C)[C@@H](C)CC` [LL-34—G14A] (H-LLGDFFRKSKEKIAKEFKRIVQRIKDFLRNLVPR-OH; N-terminus and C-terminus assumed) was 5 µM.
With `CC[C@H](C)[C@H](NC(=O)[C@H](CCCCN)NC(=O)[C@H](CCC(=O)O)NC(=O)[C@H](CCCCN)NC(=O)[C@H](CO)NC(=O)[C@H](C)NC(=O)[C@H](CCCNC(=N)N)NC(=O)[C@H](Cc1ccccc1)NC(=O)[C@H](Cc1ccccc1)NC(=O)[C@H](CC(=O)O)NC(=O)CNC(=O)[C@H](CC(C)C)NC(=O)[C@@H](N)CC(C)C)C(=O)NCC(=O)N[C@@H](CCCCN)C(=O)N[C@@H](CCC(=O)O)C(=O)N[C@@H](Cc1ccccc1)C(=O)N[C@@H](CCCCN)C(=O)N[C@@H](CCCNC(=N)N)C(=O)N[C@H](C(=O)N[C@H](C(=O)N[C@@H](CCC(N)=O)C(=O)N[C@@H](CCCNC(=N)N)C(=O)N[C@H](C(=O)N[C@@H](CCCCN)C(=O)N[C@@H](CC(=O)O)C(=O)N[C@@H](Cc1ccccc1)C(=O)N[C@@H](CC(C)C)C(=O)N[C@@H](CCCNC(=N)N)C(=O)N[C@@H](CC(N)=O)C(=O)N[C@@H](CC(C)C)C(=O)N[C@H](C(=O)N1CCC[C@H]1C(=O)N[C@@H](CCCNC(=N)N)C(=O)O)C(C)C)[C@@H](C)CC)C(C)C)[C@@H](C)CC` [LL-34—K8A] (H-LLGDFFRASKEKIGKEFKRIVQRIKDFLRNLVPR-OH; N-terminus and C-terminus assumed), the “Minimal cytotoxic concentration” value is 5 µM.
